# Results reported in publication PMC10886690, “Synthesis, Characterization, Antioxidant, and Anticancer Activity against Colon Cancer Cells of Some Cinnamaldehyde-Based Chalcone Derivatives” (Biomolecules, 2024).
# Entries after “also recorded” stand apart in the source; their conditions may differ. Like-named read-outs stand apart in the source and are kept apart here.
# What was measured:
# wi38 cells = assay: MTT test on healthy WI38 cells; type: cell-based, human; conditions: 50 to 1000 µM, 24 h
# Description: (§1) The American Type Culture Collection (ATCC) provided WI-38 (ATCC CCL-75), a cell line from the healthy human embryonic lung, and Caco-2 (ATCC HTB-37), a cell line from colon cancer. These cells were developed in DMEM medium that was supplemented with antibiotics and fetal bovine serum in a 5% CO2 humidified incubator at 37 °C.
# The effects of the investigated compounds on the survival of healthy cells, WI38, have been evaluated and compared to 5-Fluorouracil (5-FU, the standard reference drug) utilizing the MTT test at concentrations ranging from 50 to 1000 µM to further determine whether the substances were secure for usage on living tissues. Three distinct evaluations of each value were carried out to calculate the final findings.
# Caco-2 cells [1] = assay: MTT cytotoxicity against Caco-2 cells; type: cell-based, human; conditions: 24 h incubation, mean ± SD of three analyses, read-out: IC50 Conc. against Caco-2 cells
# Description: as §1
# The toxicity of the tested compounds (3a–3k) toward Caco-2 cancer cells was examined and compared to 5-Fluorouracil (5-FU, the standard reference drug) utilizing MTT assay, as previously explained. In brief, 1 × 10^5 Caco-2 cells/mL were distributed into each well of a 96-well plate and kept overnight at 37 °C in their growth mixture. The cells were then subjected to the various doses of the studied compounds (50–1000 µM). Following that, the cells were exposed to MTT solution, which induced formazan formation from the MTT, a byproduct of the metabolism of MTT that is proportionate to the quantity of intact cells. To further dissolve the formazan crystal, dimethyl sulfoxide was applied to the cells. Caco-2 survival was obtained through measuring the value of the optical density at 570 nm implementing a microplate reader (Bio-Rad, Hercules, CA, USA), and the effect of the substances on cell proliferation was expressed using the aforementioned formula (2):Cell viability % = (Abs. of tested sample − Abs. of blank)/(Abs. of control − Abs. of blank) × 100(2)
# The half-suppression (IC50) dose of the test drugs over a 24 h incubation period was identified through examination of the concentration–response curve. Each value was evaluated three times, and the average of the three ratings was employed to obtain the results.
# BAX = assay: qRT-PCR of BAX mRNA in Caco-2 cells; type: cell-based, human; conditions: Caco-2, IC50 concentration
# Source text: (§2) The relative amounts of messenger RNA (mRNA) for apoptosis-related genes (BCL-2, Caspase-3, and BAX) have been monitored in order to look into potential processes relating to the effect of the tested 3e compound on apoptosis inside the treated Caco-2 cancer cells. In a nutshell, Thermo Fisher Scientific’s RNA purification kit (Waltham, MA, USA) (catalog #K0731) was used to isolate total RNA from both control- and Caco-2-treated cells, as per the manufacturer’s instructions. The ratio of A260/A280 was then quantified using a spectrophotometer to figure out the amounts of extracted RNA in each sample. Then, following the manufacturer’s instructions, first-strand cDNA was produced from the collected RNA samples using a kit made by Thermo Fisher Scientific called RevertAid (catalog #K1621). Real-time PCR amplification was performed on an Applied Biosystems StepOnePlusTM instrument using the Thermo Fisher Scientific Maxima SYBR Green qPCR kit (catalog #K0221) and gene-specific primers (Invitrogen, Waltham, MA, USA), as detailed in Table 3. Then, the relative quantification (RQ) of the utilized genes was calculated using a comparative threshold cycle approach, compared against their varied expression in the untreated samples, and normalized to B-actin as a housekeeping gene. […]
# Caco-2 cells [2] = assay: Annexin V/PI flow cytometry apoptosis assay; type: cell-based, human; conditions: Caco-2, IC50 dose, 24 h
# Description: The annexin V/PI assay focuses on the translocation of phosphatidylserine (PS) from the inner plasma membrane toward the cell surface within apoptotic cells. Accordingly, the Annexin V-FITC detection kit I (BD Biosciences) was implemented to figure out the numbers of apoptotic and necrotic cells in both the compound 3e-treated and untreated Caco-2 cells for 24 h.. In brief, Caco-2 cells were collected, expanded in 6-well culture dishes with 1 × 10^6 cells per well, and then allowed to incubate for an overnight period to promote cell adhesion and proliferation. After only 24 h in the presence of the 3e compound, the cells were trypsinized, centrifuged, rinsed with PBS, and then mixed with a solution containing Annexin V binding buffer (1×) before being exposed to the Annexin V-FITC and propidium iodide stains. At last, a flow cytometer (BD FACSCalibur™, Biosciences, San Jose, CA, USA) was implemented to find the amount of early as well as late apoptotic cells, and the outcomes were presented graphically.
# BCL-2 = assay: qRT-PCR of BCL-2 mRNA in Caco-2 cells; type: cell-based, human; conditions: Caco-2, IC50 concentration
# Source text: as §2
# cleaved Caspase-3 = assay: ELISA of cleaved Caspase-3 protein in Caco-2 cells; type: cell-based, human; conditions: Caco-2, IC50 dose
# Description: Protein expression levels of the under investigation genes were evaluated in Caco-2 cells treated with compound 3e using an ELISA assay. Three different ELISA kits were used: one for BAX (ab199080), one for cleaved Caspase-3 (ab220655), and one for BCL-2 (ab272102), which were supplied via Abcam (Cambridge, UK). All of these kits are based on a single, highly sensitive sandwich enzyme assay that lasts 90 min and uses a precoated ELISA plate and an anti-tag antibody to capture antibodies that have been labeled with an affinity tag. The tested compound 3e-treated cultured Caco-2 cells were centrifuged, the resulting pellets were discarded, and the residual supernatant was mixed with an antibody cocktail solution in a 96-well ELISA plate. The plate was then incubated for 1 h at room temperature. After thoroughly rinsing the plate in wash buffer (1×), in each well, a ten min incubation period of tetramethylbenzidine substrate solution was conducted. Following that, the plate was stored in a dim area. The intensity at 450 nm was then measured with a microplate reader immediately after a stop solution was added.
# [3] = DPPH free-radical scavenging (antioxidant) assay; conditions: 40–200 µM in methanol, versus ascorbic acid
# Description: The potential of several compounds to scavenge DPPH free radicals was quantified employing a colorimetric approach. Various doses of all tested compounds (3a–3k) were prepared in methanol (40–200 µM), and standard solutions of ascorbic acid (40–200 µM) were made by dissolving the compound in methanol. After determining the optimal concentration of each compound and ascorbic acid, the solutions were supplemented with DPPH. The radical scavenging capacity (RSC) was calculated by measuring the absorbance at 517 nm and using the Formula (1):% DPPH RSC = (Abs. of control − Abs. of sample or standard)/Abs. of control × 100(1)
smiles,measurement,setting,value
"O=C(/C=C/C=C/c1ccccc1)c1ccc[nH]1 [3e, (2E,4E)-5-phenyl-1-(1H-pyrrol-2-yl)penta-2,4-dien-1-one]",effect on wi38 normal cell viability,wi38 cells,higher % of wi38 cell viability; also recorded: no detrimental effects
same,IC50,Caco-2 cells [1],32.2 ± 3.92 µM
same,IC50,"Caco-2 cells [1]; Homo sapiens, Caco-2, 24 h",32.1 ± 3.92 µM
same,BAX mRNA expression level versus untreated cells,BAX,increased considerably
same,percentage of apoptotic cells (early and late) versus untreated,Caco-2 cells [2],much greater percentage of apoptotic cells
same,melting point,,170 °C
same,BCL-2 mRNA expression level versus untreated cells,BCL-2,substantial reduction
same,cleaved Caspase-3 protein level versus untreated cells,cleaved Caspase-3,increased levels
same,"antioxidant activity (DPPH scavenging, IC50) compared with the other compounds",[3],highest effective antioxidant activity
